Assay results reported in PubChem BioAssay (NCI).
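Each compound was tested at five concentrations against cells in 96-well plates for 48 hours. TGI marks complete inhibition of growth.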

Legend:
Experiment in all cases: inhibition of tumour cell growth, NCI panel, 48 h
NCI-H226 lung = test system: NCI-H226 lung
XF 498 CNS = test system: XF 498 CNS
SK-MEL-5 melanoma = test system: SK-MEL-5 melanoma
OVCAR-3 ovarian = test system: OVCAR-3 ovarian
UACC-62 melanoma = test system: UACC-62 melanoma
RPMI-8226 leukemia = test system: RPMI-8226 leukemia
A498 renal = test system: A498 renal
MALME-3M melanoma = test system: MALME-3M melanoma
TK-10 renal = test system: TK-10 renal
SF-295 CNS = test system: SF-295 CNS
COLO 205 colon = test system: COLO 205 colon
M14 melanoma = test system: M14 melanoma
ACHN renal = test system: ACHN renal
HCC-2998 colon = test system: HCC-2998 colon
KM12 colon = test system: KM12 colon
DLD-1 colon = test system: DLD-1 colon
CAKI-1 renal = test system: CAKI-1 renal
SF-268 CNS = test system: SF-268 CNS
LOX IMVI melanoma = test system: LOX IMVI melanoma
UACC-257 melanoma = test system: UACC-257 melanoma
SNB-19 CNS = test system: SNB-19 CNS
K-562 leukemia = test system: K-562 leukemia
U251 CNS = test system: U251 CNS
SNB-75 CNS = test system: SNB-75 CNS
HCT-15 colon = test system: HCT-15 colon
SNB-78 CNS = test system: SNB-78 CNS
KM20L2 colon = test system: KM20L2 colon
UO-31 renal = test system: UO-31 renal
SN12C renal = test system: SN12C renal
IGROV1 ovarian = test system: IGROV1 ovarian
HT29 colon = test system: HT29 colon
SK-MEL-2 melanoma = test system: SK-MEL-2 melanoma
HL-60(TB) leukemia = test system: HL-60(TB) leukemia
SW-620 colon = test system: SW-620 colon
SK-MEL-28 melanoma = test system: SK-MEL-28 melanoma
NCI-H522 lung = test system: NCI-H522 lung
DMS 273 small cell lung = test system: DMS 273 small cell lung
A549 NSCLC = test system: A549 NSCLC
M19-MEL melanoma = test system: M19-MEL melanoma
OVCAR-8 ovarian = test system: OVCAR-8 ovarian
LXFL 529 NSCLC = test system: LXFL 529 NSCLC
SF-539 CNS = test system: SF-539 CNS
HOP-92 NSCLC = test system: HOP-92 NSCLC
NCI-H23 lung = test system: NCI-H23 lung
HOP-62 NSCLC = test system: HOP-62 NSCLC
CCRF-CEM leukemia = test system: CCRF-CEM leukemia
OVCAR-4 ovarian = test system: OVCAR-4 ovarian
786-0 renal = test system: 786-0 renal
DMS 114 small cell lung = test system: DMS 114 small cell lung
RXF-631 renal = test system: RXF-631 renal
MOLT-4 leukemia = test system: MOLT-4 leukemia
NCI-H460 lung = test system: NCI-H460 lung
HCT-116 colon = test system: HCT-116 colon
OVCAR-5 ovarian = test system: OVCAR-5 ovarian
SK-OV-3 ovarian = test system: SK-OV-3 ovarian
RXF 393 renal = test system: RXF 393 renal
SR leukemia = test system: SR leukemia
EKVX NSCLC = test system: EKVX NSCLC
HOP-18 NSCLC = test system: HOP-18 NSCLC

SMILES: CCc1cccc(C)c1NC(=O)CCc1nnc2s/c(=C\c3cccc4ccccc34)c(=O)n12
- TGI (NCI-H226 lung): > 100 µM
- TGI (XF 498 CNS): > 100 µM
- TGI (SK-MEL-5 melanoma): > 100 µM
- TGI (OVCAR-3 ovarian): > 100 µM
- TGI (UACC-62 melanoma): > 100 µM
- TGI (RPMI-8226 leukemia): > 100 µM
- TGI (A498 renal): > 100 µM
- TGI (MALME-3M melanoma): > 100 µM
- TGI (TK-10 renal): > 100 µM
- TGI (SF-295 CNS): > 100 µM
- TGI (COLO 205 colon): > 100 µM
- TGI (M14 melanoma): > 100 µM
- TGI (ACHN renal): > 100 µM
- TGI (HCC-2998 colon): > 100 µM
- TGI (KM12 colon): > 100 µM
- TGI (DLD-1 colon): > 100 µM
- TGI (CAKI-1 renal): > 100 µM
- TGI (SF-268 CNS): > 100 µM
- TGI (LOX IMVI melanoma): > 100 µM
- TGI (UACC-257 melanoma): > 100 µM
- TGI (SNB-19 CNS): > 100 µM
- TGI (K-562 leukemia): > 100 µM
- TGI (U251 CNS): > 100 µM
- TGI (SNB-75 CNS): > 100 µM
- TGI (HCT-15 colon): > 100 µM
- TGI (SNB-78 CNS): > 100 µM
- TGI (KM20L2 colon): > 100 µM
- TGI (UO-31 renal): > 100 µM
- TGI (SN12C renal): > 100 µM
- TGI (IGROV1 ovarian): > 100 µM
- TGI (HT29 colon): > 100 µM
- TGI (SK-MEL-2 melanoma): > 100 µM
- TGI (HL-60(TB) leukemia): > 100 µM
- TGI (SW-620 colon): > 100 µM
- TGI (SK-MEL-28 melanoma): > 100 µM
- TGI (NCI-H522 lung): > 100 µM
- TGI (DMS 273 small cell lung): > 100 µM
- TGI (A549 NSCLC): > 100 µM
- TGI (M19-MEL melanoma): > 100 µM
- TGI (OVCAR-8 ovarian): > 100 µM
- TGI (LXFL 529 NSCLC): > 100 µM
- TGI (SF-539 CNS): > 100 µM
- TGI (HOP-92 NSCLC): > 100 µM
- TGI (NCI-H23 lung): > 100 µM
- TGI (HOP-62 NSCLC): > 100 µM
- TGI (CCRF-CEM leukemia): > 100 µM
- TGI (OVCAR-4 ovarian): > 100 µM
- TGI (786-0 renal): > 100 µM
- TGI (DMS 114 small cell lung): > 100 µM
- TGI (RXF-631 renal): > 100 µM
- TGI (MOLT-4 leukemia): > 100 µM
- TGI (NCI-H460 lung): > 100 µM
- TGI (HCT-116 colon): > 100 µM
- TGI (OVCAR-5 ovarian): > 100 µM
- TGI (SK-OV-3 ovarian): > 100 µM
- TGI (RXF 393 renal): > 100 µM

SMILES: O=c1cccccc1NCCCCCCCNc1cccccc1=O
- TGI (NCI-H226 lung): > 100 µM
- TGI (XF 498 CNS): 32.8 µM
- TGI (OVCAR-3 ovarian): > 100 µM
- TGI (UACC-62 melanoma): 84.5 µM
- TGI (RPMI-8226 leukemia): 55.1 µM
- TGI (SR leukemia): 89.8 µM
- TGI (MALME-3M melanoma): > 100 µM
- TGI (SF-295 CNS): > 100 µM
- TGI (COLO 205 colon): > 100 µM
- TGI (M14 melanoma): 74.6 µM
- TGI (ACHN renal): > 100 µM
- TGI (KM12 colon): > 100 µM
- TGI (DLD-1 colon): > 100 µM
- TGI (CAKI-1 renal): > 100 µM
- TGI (SF-268 CNS): > 100 µM
- TGI (LOX IMVI melanoma): > 100 µM
- TGI (UACC-257 melanoma): 45.7 µM
- TGI (SNB-19 CNS): > 100 µM
- TGI (K-562 leukemia): > 100 µM
- TGI (EKVX NSCLC): > 100 µM
- TGI (SNB-75 CNS): > 100 µM
- TGI (HCT-15 colon): > 100 µM
- TGI (SNB-78 CNS): > 100 µM
- TGI (KM20L2 colon): > 100 µM
- TGI (UO-31 renal): 80.3 µM
- TGI (SN12C renal): > 100 µM
- TGI (IGROV1 ovarian): > 100 µM
- TGI (HT29 colon): > 100 µM
- TGI (SK-MEL-2 melanoma): > 100 µM
- TGI (HL-60(TB) leukemia): 30 µM
- TGI (SW-620 colon): > 100 µM
- TGI (NCI-H522 lung): 55.2 µM
- TGI (DMS 273 small cell lung): > 100 µM
- TGI (A549 NSCLC): > 100 µM
- TGI (M19-MEL melanoma): 84.8 µM
- TGI (OVCAR-8 ovarian): > 100 µM
- TGI (LXFL 529 NSCLC): > 100 µM
- TGI (SF-539 CNS): > 100 µM
- TGI (HOP-92 NSCLC): 97.8 µM
- TGI (NCI-H23 lung): > 100 µM
- TGI (HOP-62 NSCLC): > 100 µM
- TGI (CCRF-CEM leukemia): 67.2 µM
- TGI (OVCAR-4 ovarian): > 100 µM
- TGI (786-0 renal): > 100 µM
- TGI (RXF-631 renal): 35 µM
- TGI (MOLT-4 leukemia): 53.4 µM
- TGI (NCI-H460 lung): > 100 µM
- TGI (HCT-116 colon): > 100 µM
- TGI (OVCAR-5 ovarian): > 100 µM
- TGI (SK-OV-3 ovarian): > 100 µM
- TGI (RXF 393 renal): 25.8 µM

SMILES: CCC(COC(=O)CC[C@@H](NC(=O)C(C)NC(=O)C(C)OC1C(O)C(CO)OC(OCc2ccccc2)C1NC(C)=O)C(N)=O)NC1c2ccccc2Nc2cccc([N+](=O)[O-])c21 (some centres undefined)
- TGI (NCI-H226 lung): > 100 µM
- TGI (XF 498 CNS): > 100 µM
- TGI (SK-MEL-5 melanoma): > 100 µM
- TGI (OVCAR-3 ovarian): > 100 µM
- TGI (UACC-62 melanoma): > 100 µM
- TGI (RPMI-8226 leukemia): > 100 µM
- TGI (SR leukemia): > 100 µM
- TGI (MALME-3M melanoma): > 100 µM
- TGI (TK-10 renal): > 100 µM
- TGI (SF-295 CNS): > 100 µM
- TGI (COLO 205 colon): > 100 µM
- TGI (M14 melanoma): > 100 µM
- TGI (ACHN renal): > 100 µM
- TGI (HCC-2998 colon): > 100 µM
- TGI (KM12 colon): > 100 µM
- TGI (DLD-1 colon): > 100 µM
- TGI (CAKI-1 renal): > 100 µM
- TGI (SF-268 CNS): > 100 µM
- TGI (LOX IMVI melanoma): > 100 µM
- TGI (UACC-257 melanoma): > 100 µM
- TGI (SNB-19 CNS): > 100 µM
- TGI (K-562 leukemia): > 100 µM
- TGI (U251 CNS): > 100 µM
- TGI (EKVX NSCLC): > 100 µM
- TGI (SNB-75 CNS): > 100 µM
- TGI (HCT-15 colon): > 100 µM
- TGI (SNB-78 CNS): > 100 µM
- TGI (KM20L2 colon): > 100 µM
- TGI (UO-31 renal): > 100 µM
- TGI (SN12C renal): > 100 µM
- TGI (IGROV1 ovarian): > 100 µM
- TGI (HT29 colon): > 100 µM
- TGI (SK-MEL-2 melanoma): > 100 µM
- TGI (HL-60(TB) leukemia): > 100 µM
- TGI (SW-620 colon): > 100 µM
- TGI (SK-MEL-28 melanoma): > 100 µM
- TGI (NCI-H522 lung): > 100 µM
- TGI (DMS 273 small cell lung): > 100 µM
- TGI (HOP-18 NSCLC): > 100 µM
- TGI (A549 NSCLC): > 100 µM
- TGI (M19-MEL melanoma): > 100 µM
- TGI (OVCAR-8 ovarian): > 100 µM
- TGI (LXFL 529 NSCLC): > 100 µM
- TGI (SF-539 CNS): > 100 µM
- TGI (HOP-92 NSCLC): > 100 µM
- TGI (NCI-H23 lung): > 100 µM
- TGI (HOP-62 NSCLC): > 100 µM
- TGI (CCRF-CEM leukemia): > 100 µM
- TGI (OVCAR-4 ovarian): > 100 µM
- TGI (786-0 renal): > 100 µM
- TGI (DMS 114 small cell lung): > 100 µM
- TGI (MOLT-4 leukemia): > 100 µM
- TGI (NCI-H460 lung): > 100 µM
- TGI (HCT-116 colon): > 100 µM
- TGI (OVCAR-5 ovarian): > 100 µM
- TGI (SK-OV-3 ovarian): > 100 µM
- TGI (RXF 393 renal): 84.6 µM
